Consider eleven molecules from patent US8008260B2, “Methods of protecting against apoptosis using lipopeptides” (Cleveland Clinic Foundation, priority 2005, dated 2011).

One data set addresses T1, TLR2/TLR6 heterodimer (Homo sapiens, UniProt O60603+Q9Y2C9).
T1 construct: expressed in transfected cells; host or cells: 293 cells
Briefly: NF-κB-dependent reporter activity in 293 cells expressing the TLR2/TLR6 heterodimer. The format is cell-based. Also on record: NF-κB activation: scale not given here. Conditions: for NF-κB activation: in vitro activity, 293 cells expressing TLR2/TLR6; for activation of the NF-κB reporter (in words, compared with CBLB601): 293 cells expressing TLR2/TLR6, various doses. The method, then: NF-κB-dependent reporter activity was measured in 293 cells that expressed the TLR2/YLR6 heterodimer. […] None of the non-palmitoylated corresponding peptides activated the NF-κB reporter (FIG. 18B). The peptide component of CBLB617 has a (−4) charge, which should prevent it from interacting with negatively charged cell surface markers. […] Table 5 summarizes the in vitro activity and solubility of all the compounds.

Data set [1] can be described thus: Solubility of the lipopeptides.
A further data set deals with ICR mice. Briefly: Radioprotection against total body gamma irradiation (TBI), 30-day survival. In kind it is in vivo. Conditions: for toxicity in combination with radiation: i.m. 24 hours before 10 Gy TBI. An excerpt: CBLB601, a R-Pam2-lipopeptide with the peptide moiety consisting of C-SKKKK (SEQ ID NO: 8), was selected for more detailed characterization as a radioprotector based upon its ability to activate NF-κB and preliminary in vivo data on radioprotection in NIH-SWISS mice (see Example 2). The objectives of this study were to determine the optimal dose, route of administration, and time of administration of CBLB601 to serve as a protector. ICR female mice of 10-15 weeks of age were used, with 10-15 animals per group or condition.
The optimal intraperitoneal administration schedule of CBLB601 was determined by injecting the compound at different times prior to irradiation. […] Therefore, all of the optimization experiments were performed with 10 Gy of total body irradiation (TBI). A dose of 3 μg of BCLB601/mouse (1/10 NOAEL) was chosen as the starting dose. Thus, 3 μg of CBLB601 was injected i.p. into ICR mice at 0.5 h, 1 h, 6 h, and 24 h or 1 h, 24 h, 48 h, 72 h, 96 h prior to 10 Gy of TBI (as described in Example 1). […] Injection of CBLB601 24 hrs before irradiation clearly yielded the best radioprotection (90-100% 30-day survival). When the compound was administered 48 hrs before irradiation, the radioprotection was ˜30%. Administration of CBLB601 at 1 hr prior to irradiation produced inconsistent results ranging from 80% protection in one experiment (FIG. 5B) to almost no protection (20%) in another experiment (FIG. 5A).
To determine the optimal radioprotective dose of CBLB601, the timing of injection and level of irradiation were kept constant, while the dose of CBLB601 was varied. ICR mice were injected i.p. with 1, 3, 10, 20, or 30 μg of CBLB601/mouse or 0.1, 0.3, 1, 3, 10, or […] 24 hrs prior to irradiation (10 Gy of TBI), and their survival was monitored for 30 days. The best protective dose was 3 μg/mouse, which supported a survival of 100% (FIGS. 6 A and B). […] Thus, the optimal protective dose of CBLB601 was determined to be 3 μg/mouse.
To determine the level of radiation that was protected by CBLB601, radioprotectant-treated and control mice were exposed to increasing levels of TBI. Groups of ICR mice were injected i.p. with either 3 μg CBLB601/mouse or PBS, and then 24 h later they received 10, 11, 12, 13, 14, and 15 Gy doses of TBI. Survival was recorded over 30 days. […] All of the mice irradiated with 10-11 Gy of TBI died between days 12-14 post irradiation, which was typical for death due to hematopoietic failure. All of the mice that received 14-15 Gy of TBI died between days 7-9 post irradiation, which was typical for mortality due to radiation-induced intestinal damage. Mice that were irradiated with 12-13 Gy of TBI died at intermediate times, which was typical for a mixed etiology of radiation-induced mortality. […] To reach a statistically significant 10% difference between control and CBLB601-treated mice, experimental groups of at least 50 mice must be used. Although CBLB601 rescued 100% of mice from 10 Gy of TBI, its protection at 11 Gy of TBI was only 20%. […] This may be indicative of a combined toxicity of the drug and the irradiation.
CBLB601 was administered intramuscularly to determine the optimal route of administration of this compound (especially since this would be the preferred route of administration for humans). […] In another experiment, increasing doses of CBLB601 administered i.m. were tested against 10, 11, and 12 Gy doses of […] (FIG. 9). […] A summary of the dose-dependency of the radioprotection of […] administered i.p. or i.m. 24 h prior to 10 Gy of TBI is shown in FIG. 10.
The optimal schedule of intramuscular administration of CBLB601 was determined by varying the time between drug delivery and irradiation. ICR mice were injected i.m. with 3 μg of CBLB601/mouse 24 h, 6 h, 3 h, and 1 h prior to TBI and +1 h, +3 h after TBI (FIG. 12A), as well as 48 h, 36 h, 24 h, 12 h, and 6 h prior to TBI (FIG. 12B). […]

Peptide text beside a SMILES is read from it. * marks the point of attachment. Propyl(2R-PamO,3-PamO) = CCCCCCCCCCCCCCCC(=O)OC[C@H](C*)OC(=O)CCCCCCCCCCCCCCC; X1 = CCCCCCCCCCCCCCCC(=O)OCC(C*)OC(=O)CCCCCCCCCCCCCCC

T1 sequence (O60603 21-784): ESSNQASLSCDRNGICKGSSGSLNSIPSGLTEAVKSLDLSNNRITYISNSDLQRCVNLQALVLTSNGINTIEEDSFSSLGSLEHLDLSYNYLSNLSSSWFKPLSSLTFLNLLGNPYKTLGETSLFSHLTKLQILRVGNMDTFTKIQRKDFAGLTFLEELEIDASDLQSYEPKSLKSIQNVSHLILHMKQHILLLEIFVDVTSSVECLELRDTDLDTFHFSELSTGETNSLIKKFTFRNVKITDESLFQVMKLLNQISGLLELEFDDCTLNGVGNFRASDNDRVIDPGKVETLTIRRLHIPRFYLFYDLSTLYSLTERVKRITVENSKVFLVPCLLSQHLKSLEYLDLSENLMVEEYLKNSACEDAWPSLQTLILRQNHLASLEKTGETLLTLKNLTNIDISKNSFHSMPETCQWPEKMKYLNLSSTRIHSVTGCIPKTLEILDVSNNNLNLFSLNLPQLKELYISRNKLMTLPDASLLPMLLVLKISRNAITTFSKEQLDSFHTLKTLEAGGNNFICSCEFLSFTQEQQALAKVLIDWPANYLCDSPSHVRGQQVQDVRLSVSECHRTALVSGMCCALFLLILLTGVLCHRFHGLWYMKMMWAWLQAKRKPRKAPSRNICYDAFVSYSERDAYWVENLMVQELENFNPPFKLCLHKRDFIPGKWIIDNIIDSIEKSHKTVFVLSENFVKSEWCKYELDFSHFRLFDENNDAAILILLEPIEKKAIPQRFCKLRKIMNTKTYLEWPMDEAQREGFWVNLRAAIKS
T1 sequence (Q9Y2C9 32-796): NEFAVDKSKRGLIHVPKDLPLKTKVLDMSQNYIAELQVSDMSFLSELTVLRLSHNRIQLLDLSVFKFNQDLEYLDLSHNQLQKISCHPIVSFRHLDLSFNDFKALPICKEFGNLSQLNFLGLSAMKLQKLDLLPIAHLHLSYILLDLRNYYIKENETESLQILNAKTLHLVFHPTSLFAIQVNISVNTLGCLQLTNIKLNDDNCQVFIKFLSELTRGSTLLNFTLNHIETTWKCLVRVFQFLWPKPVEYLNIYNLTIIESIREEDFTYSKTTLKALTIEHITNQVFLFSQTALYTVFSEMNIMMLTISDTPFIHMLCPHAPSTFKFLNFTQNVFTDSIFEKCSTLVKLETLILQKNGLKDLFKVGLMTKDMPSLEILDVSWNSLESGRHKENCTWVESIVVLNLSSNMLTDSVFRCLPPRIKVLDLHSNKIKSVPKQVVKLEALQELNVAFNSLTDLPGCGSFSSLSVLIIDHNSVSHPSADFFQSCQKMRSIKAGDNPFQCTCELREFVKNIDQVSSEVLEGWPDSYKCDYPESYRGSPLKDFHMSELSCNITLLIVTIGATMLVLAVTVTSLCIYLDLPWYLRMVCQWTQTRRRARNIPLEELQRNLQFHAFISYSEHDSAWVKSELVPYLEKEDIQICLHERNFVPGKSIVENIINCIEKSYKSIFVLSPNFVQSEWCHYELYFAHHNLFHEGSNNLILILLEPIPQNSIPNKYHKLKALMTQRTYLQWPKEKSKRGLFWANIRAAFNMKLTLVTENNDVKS

The molecule `CCCCCCCCCCCCCCCC(=O)OCC(CSC[C@H](N)C(=O)NCC(=O)N[C@@H](CO)C(=O)N[C@@H](Cc1c[nH]cn1)C(=O)N[C@@H](Cc1c[nH]cn1)C(=O)N[C@@H](CCSC)C(=O)O)OC(=O)CCCCCCCCCCCCCCC` (some centres unmarked) [CBLB604] (H-C(X1)GSHHM-OH) registered an NF-κB activation on TLR2/TLR6 heterodimer of 0. Also, the Solubility result in data set [1] is “Poor”.

Consider `CCCCCCCCCCCCCCCC(=O)OCC(CSC[C@H](N)C(=O)NCC(=O)N[C@@H](CCC(=O)O)C(=O)N[C@H](C(=O)N[C@@H](CC(=O)O)C(=O)N[C@@H](CCCCN)C(=O)N[C@@H](CCC(=O)O)C(=O)NCC(=O)N[C@@H](CCCCN)C(=O)N[C@H](C(=O)N[C@H](C(=O)N[C@@H](CCCNC(=N)N)C(=O)N[C@H](C(=O)N[C@@H](Cc1ccccc1)C(=O)N[C@@H](CC(=O)O)C(=O)N[C@@H](CC(N)=O)C(=O)N[C@@H](CO)C(=O)N[C@@H](Cc1ccccc1)C(=O)O)[C@@H](C)CC)[C@@H](C)CC)[C@@H](C)CC)[C@@H](C)O)OC(=O)CCCCCCCCCCCCCCC` (some centres unmarked) [CBLB611] (H-C(X1)GETDKEGKIIRIFDNSF-OH), for which the NF-κB activation at TLR2/TLR6 heterodimer came to 0.

Turning to `CCCCCCCCCCCCCCCC(=O)OCC(CSC[C@H](N)C(=O)NCC(=O)N[C@@H](CCC(N)=O)C(=O)N[C@@H](Cc1c[nH]cn1)C(=O)N[C@@H](Cc1c[nH]cn1)C(=O)N[C@@H](Cc1c[nH]cn1)C(=O)O)OC(=O)CCCCCCCCCCCCCCC` (some centres unmarked) [CBLB602] (H-C(X1)GQHHH-OH), on TLR2/TLR6 heterodimer, the NF-κB activation was 0. Also, the Solubility entry in data set [1] is listed as “Poor”.

With `CCCCCCCCCCCCCCCC(=O)OC[C@H](CSC[C@H](N)C(=O)NCC(=O)N[C@@H](CCC(=O)O)C(=O)N[C@H](C(=O)N[C@@H](CC(=O)O)C(=O)N[C@@H](CCCCN)C(=O)O)[C@@H](C)O)OC(=O)CCCCCCCCCCCCCCC` [CBLB613] (H-C(Propyl(2R-PamO,3-PamO))GETDK-OH), at TLR2/TLR6 heterodimer, the “activation of the NF-κB reporter (in words, compared with CBLB601)” value (“activation … (in words, compared with CBLB601)” below) was “comparable to that of CBLN601” and the NF-κB activation is reported as 200. Also, the “protection (30-day survival)” value in the data set with ICR mice (doses of 10, 30 and 82.5 μg/mouse i.m. 24 hours before 10 Gy TBI) came to 100%. Also, in the data set on ICR mice, the “toxicity in combination with radiation” value is reported as “non-toxic in combination with the radiation”. For the same molecule, in the data set with ICR mice (mouse, in vivo), the “radioprotector quality compared with CBLB601” value was “significantly better radioprotectors than CBLB601”. The therapeutic index with ICR mice (summary of Example 5) is about 20. In addition, in data set [1], the Solubility result is on record as “Soluble”.

On TLR2/TLR6 heterodimer, `CCCCCCCCCCCCCCCC(=O)OCC(CSC[C@H](N)C(=O)N[C@@H](CO)C(=O)N[C@@H](CCC(N)=O)C(=O)N[C@@H](CCSC)C(=O)N[C@@H](Cc1c[nH]cn1)C(=O)N[C@@H](Cc1c[nH]cn1)C(=O)O)OC(=O)CCCCCCCCCCCCCCC` (some centres unmarked) [CBLB605] (H-C(X1)SQMHH-OH) yielded an NF-κB activation of 2. Besides, the Solubility entry in data set [1] is given as “Poor”.

In turn, `CCCCCCCCCCCCCCCC(=O)OCC(CSC[C@H](N)C(=O)NCC(=O)N[C@@H](CC(=O)O)C(=O)N1CCC[C@H]1C(=O)N[C@@H](CCCCN)C(=O)N[C@@H](Cc1c[nH]cn1)C(=O)N1CCC[C@H]1C(=O)N[C@@H](CCCCN)C(=O)N[C@@H](CO)C(=O)N[C@@H](Cc1ccccc1)C(=O)N[C@H](C(=O)NCC(=O)N[C@@H](Cc1c[nH]c2ccccc12)C(=O)N[C@H](C(=O)N[C@@H](C)C(=O)O)C(C)C)[C@@H](C)O)OC(=O)CCCCCCCCCCCCCCC` (some centres unmarked) [CBLB607] (H-C(X1)GDPKHPKSFTGWVA-OH) came in with an NF-κB activation at TLR2/TLR6 heterodimer of 2. Besides, in data set [1], the Solubility result is recorded as “Poor”.

`CCCCCCCCCCCCCCCC(=O)OC[C@H](CSC[C@H](N)C(=O)NCC(=O)N[C@@H](CCC(=O)O)C(=O)N[C@@H](CCC(=O)O)C(=O)N[C@@H](CC(=O)O)C(=O)N[C@@H](CC(=O)O)C(=O)O)OC(=O)CCCCCCCCCCCCCCC` [CBLB617] (H-C(Propyl(2R-PamO,3-PamO))GEEDD-OH): at TLR2/TLR6 heterodimer, the “activation … (in words, compared with CBLB601)” value is “comparable to that of CBLB601” and the NF-κB activation was 100. Moreover, the survival in the data set with ICR mice (after 13 days, doses of 10-87.5 μg/mouse respectively, 10 Gy TBI) is on record as 7-90%. Moreover, the visible toxicity result in the data set with ICR mice (after 13 days, highest dose 87.5 μg/mouse, 10 Gy TBI) is listed as “no visible toxicity”. Also, the Solubility result in data set [1] is listed as “Soluble”.

As for `CCCCCCCCCCCCCCCC(=O)OCC(CSC[C@H](N)C(=O)NCC(=O)N[C@@H](CCC(N)=O)C(=O)N[C@@H](Cc1c[nH]cn1)C(=O)N[C@@H](Cc1c[nH]cn1)C(=O)N[C@@H](CCSC)C(=O)O)OC(=O)CCCCCCCCCCCCCCC` (some centres unmarked) [CBLB603] (H-C(X1)GQHHM-OH), the NF-κB activation on TLR2/TLR6 heterodimer turned out to be 0. Moreover, in data set [1], the Solubility result was “Poor”.

`CCCCCCCCCCCCCCCC(=O)OC[C@H](CSC[C@H](N)C(=O)NCC(=O)N[C@@H](CC(=O)O)C(=O)N1CCC[C@H]1C(=O)N[C@@H](CCCCN)C(=O)N[C@@H](Cc1c[nH]cn1)C(=O)N1CCC[C@H]1C(=O)N[C@@H](CCCCN)C(=O)N[C@@H](CO)C(=O)N[C@@H](Cc1ccccc1)C(=O)O)OC(=O)CCCCCCCCCCCCCCC` [CBLB606] (H-C(Propyl(2R-PamO,3-PamO))GDPKHPKSF-OH; C-terminus assumed) registered an NF-κB activation on TLR2/TLR6 heterodimer of 100. The Solubility result in data set [1] is reported as “Poor”.

`CCCCCCCCCCCCCCCC(=O)OC[C@H](CSC[C@H](N)C(=O)N[C@@H](CCC(N)=O)C(=O)NCC(=O)N[C@@H](CCC(=O)O)C(=O)N[C@@H](CCC(=O)O)C(=O)N[C@@H](CO)C(=O)N[C@@H](CC(N)=O)C(=O)N[C@@H](CC(=O)O)C(=O)N[C@@H](CCCCN)C(=O)O)OC(=O)CCCCCCCCCCCCCCC` [CBLB614] (H-C(Propyl(2R-PamO,3-PamO))QGEESNDK-OH): on TLR2/TLR6 heterodimer, the “activation … (in words, compared with CBLB601)” value was “better activators than CBLB601” and the NF-κB activation is reported as 200. For the same molecule, in the data set with ICR mice, the “toxicity in combination with radiation” value is on record as “no toxicity in combination with radiation”. Moreover, in the data set with ICR mice (i.m. 24 hrs before 10 Gy TBI), the “rank of radioprotective potency” value is “CBLB612>CBLB614>CBLB615”. The Solubility entry in data set [1] is “Soluble”.

In the case of `CCCCCCCCCCCCCCCC(=O)OCC(CSC[C@H](N)C(=O)N[C@@H](Cc1ccccc1)C(=O)N[C@@H](CCC(=O)O)C(=O)N1CCC[C@H]1C(=O)N1CCC[C@H]1C(=O)N1CCC[C@H]1C(=O)N[C@@H](C)C(=O)N[C@H](C(=O)N[C@H](C(=O)N[C@H](C(=O)N[C@@H](CCCCN)C(=O)N[C@@H](CO)C(=O)N[C@@H](CCCCN)C(=O)O)[C@@H](C)O)[C@@H](C)O)[C@@H](C)O)OC(=O)CCCCCCCCCCCCCCC` (some centres unmarked) [CBLB608] (H-C(X1)FEPPPATTTKSK-OH), the NF-κB activation on TLR2/TLR6 heterodimer came to 2. In data set [1], the Solubility entry is “Excellent”.
